These results are taken from patent US6331642A, “Vitamin D3 analogs” (Hoffmann-La Roche Inc., priority 2000, dated 2001).

Test [1] concerns myeloid leukemia cell line (HL-60). The test can be described thus: Clonogenic assay in soft agar, HL-60. Conditions: Homo sapiens, HL-60 cells, read-out: ED50 (effective dose that inhibited 50% colony formation). Type of test: cell-based. How it is done: (§1) Cell lines. The breast cancer cell line (MCF-7), prostate cancer cell line (LNCaP) and myeloid leukemia cell line (HL-60) were maintained as follows: MCF-7 cells were maintained in Dulbecco's Modified Eagle Media (DMEM) with 10% fetal calf serum (FCS); LNCaP and HL-60 were cultured in RPMI1640 with 10% FCS; All three cell lines were maintained in a 37° C. incubator containing 5% CO2.
(§2) Vitamin D3 Compounds. The vitamin D3 compounds were dissolved in absolute ethanol at 10^-3 M as stock solution, which were stored at -20° C. and protected from light. For in vitro use, compounds were diluted in DMEM or RPMI medium. For in vivo use, compounds were diluted with phosphate buffered saline (PBS). […]. Washed single-cell suspensions of cells were enumerated and plated into 24-well flat-bottomed plates with a total of […] cells/well in a volume of 400 μl/well. The feeder layer was prepared with agar that had been equilibrated at 42° C. Prior to this step, compounds were pipetted into wells. After incubation, the colonies were counted. All experiments were done at least three times using triplicate plates per experimental point.
(§3) Effect of Vitamin D3 analogs on Clonogenic Assay. […]

Test [2] concerns prostate cancer cell line (LNCaP). As to the kind of experiment: Clonogenic assay in soft agar, LNCaP. Format: cell-based. As to conditions: Homo sapiens, LNCaP cells, read-out: ED50 (effective dose that inhibited 50% colony formation). How it is done:
as §1, §2, §3

`C=C1/C(=C/C=C2\CCC[C@]3(C)C([C@H](C)CCCC(C)(C)O)=CC[C@@H]23)C[C@@H](O)C[C@@H]1O` [1,25(OH)2-16-ene-5,6-trans-D3, 1,25-Dihydroxy-16-ene-5,6-trans-cholecalciferol]: the IC50 worked out at 0.03 nM in test [1] and 1.4 nM in test [2].
